Results taken from US20250034167A1, “HETEROCYCLIC COMPOUNDS AND METHODS OF USE” (AMGEN INC., priority 2021, published 2025).

Each compound was assayed on Phosphorylation of ERK1/2 in AsPC-1 cells (assay: Phospho-ERK1/2 MSD Assay). Details: Homo sapiens, ASPC1, 2 h, read-out: 2 h p-ERK (AsPC-1 cells), IC50, AsPC-1 cells, 2 h compound treatment.
Type: cell-based
Method: Sixteen hours prior to compound treatment, AsPC-1 cells were seeded in 96-well cell culture plates at a density of 25,000 cells/well and incubated at 37° C., 5% CO2. A compound dose-response titration was diluted in growth media, added to appropriate wells of a cell culture plate, and then incubated at 37° C., 5% CO2 for 2 hours.
Compound `CCc1c(F)ccc2cc(O)cc(-c3ncc4c(N5CCC[C@@H](NC(=S)NCCOC)C5)nc(OC[C@@]56CCCN5C[C@H](F)C6)nc4c3F)c12` [Example 74, 1-((R)-1-(7-(8-ethyl-7-fluoro-3-hydroxynaphthalen-1-yl)-8-fluoro-2-(((2R,7aS)-2-fluorotetrahydro-1H-pyrrolizin-7a(5H)-yl)methoxy)pyrido[4,3-d]pyrimidin-4-yl)piperidin-3-yl)-3-(2-methoxyethyl)thiourea] has an IC50 of 2710 nM.
`CCc1c(F)ccc2cc(O)cc(-c3ncc4c(N5CCC(O)C5)nc(OC[C@@]56CCCN5C[C@H](F)C6)nc4c3F)c12` (stereo partly drawn) [Example 16, 1-(7-(8-Ethyl-7-fluoro-3-hydroxynaphthalen-1-yl)-8-fluoro-2-(((2R,7aS)-2-fluorotetrahydro-1H-pyrrolizin-7a(5H)-yl)methoxy)pyrido[4,3-d]pyrimidin-4-yl)pyrrolidin-3-ol] was tested, and the IC50 was 2860 nM.
`CCc1c(F)ccc2cc(O)cc(-c3ncc4c(N5CCC[C@@](C)(O)C5)nc(OC[C@@]56CCCN5C[C@H](F)C6)nc4c3Cl)c12` [Example 168, (R)-1-(8-Chloro-7-(8-ethyl-7-fluoro-3-hydroxynaphthalen-1-yl)-2-(((2R,7aS)-2-fluorotetrahydro-1H-pyrrolizin-7a(5H)-yl)methoxy)pyrido[4,3-d]pyrimidin-4-yl)-3-methylpiperidin-3-ol] showed an IC50 of 34 nM.
With `CCc1c(F)ccc2cc(O)cc(-c3ncc4c(N5CCCC(O)(C(F)(F)F)C5)nc(OC[C@@]56CCCN5C[C@H](F)C6)nc4c3F)c12` (stereo partly drawn) [Example 156, 1-(7-(8-Ethyl-7-fluoro-3-hydroxy-naphthalen-1-yl)-8-fluoro-2-(((2R,7aS)-2-fluorotetrahydro-1H-pyrrolizin-7a(5H)-yl)methoxy)pyrido[4,3-d]pyrimidin-4-yl)-3-(trifluoromethyl) piperidin-3-ol] the IC50 was 172 nM.
`CCc1c(F)ccc2cc(O)cc(-c3ncc4c(N5C[C@H](O)CC[C@H]5C)nc(OC[C@@]56CCCN5C[C@H](F)C6)nc4c3F)c12` [Example 36, (3R,6R)-1-(7-(8-Ethyl-7-fluoro-3-hydroxynaphthalen-1-yl)-8-fluoro-2-(((2R,7aS)-2-fluorotetrahydro-1H-pyrrolizin-7a(5H)-yl)methoxy)pyrido[4,3-d]pyrimidin-4-yl)-6-methyl-piperidin-3-ol] was tested, and the IC50 was 344 nM.
With `CCc1c(F)ccc2cc(O)cc(-c3ncc4c(N5CCC[C@@](C)(N)C5)nc(OCC56CCCN5CC(F)C6)nc4c3F)c12` (stereo in doubt) [Example 46, 4-(4-((R)-3-Amino-3-methylpiperidin-1-yl)-8-fluoro-2-(((2R,7aS)-2-fluorotetrahydro-1H-pyrrolizin-7a(5H)-yl)methoxy)pyrido[4,3-d]pyrimidin-7-yl)-5-ethyl-6-fluoronaphthalen-2-ol] the IC50 was 213 nM.
For `CCc1c(F)ccc2cc(O)cc(-c3ncc4c(N5CCCCC(=O)C5)nc(OC[C@@]56CCCN5C[C@H](F)C6)nc4c3F)c12` [Example 127, 1-(7-(8-Ethyl-7-fluoro-3-hydroxynaphthalen-1-yl)-8-fluoro-2-(((2R,7aS)-2-fluorotetrahydro-1H-pyrrolizin-7a(5H)-yl)methoxy)pyrido[4,3-d]pyrimidin-4-yl)azepan-3-one], the IC50 was 8 nM.
`C[C@@]1(O)CCCN(c2nc(OC[C@@]34CCCN3C[C@H](F)C4)nc3c(F)c(-c4cc(O)cc5ccc(F)c(F)c45)ncc23)C1` [Example 59, (R)-1-(7-(7,8-Difluoro-3-hydroxynaphthalen-1-yl)-8-fluoro-2-(((2R,7aS)-2-fluorotetrahydro-1H-pyrrolizin-7a(5H)-yl)methoxy)pyrido[4,3-d]pyrimidin-4-yl)-3-methylpiperidin-3-ol] was tested, and the IC50 was 33 nM.
`CCc1c(F)ccc2cc(O)cc(-c3ncc4c(N5CCC[C@](C)(N)C5)nc(OC[C@@]56CCCN5C[C@H](F)C6)nc4c3F)c12` [Example 45, 4-(4-((S)-3-Amino-3-methylpiperidin-1-yl)-8-fluoro-2-(((2R,7aS)-2-fluorotetrahydro-1H-pyrrolizin-7a(5H)-yl)methoxy)pyrido[4,3-d]pyrimidin-7-yl)-5-ethyl-6-fluoronaphthalen-2-ol] gave an IC50 of 2960 nM.
`CCc1c(F)ccc2cc(O)cc(-c3ncc4c(N5CCC=CC(=O)C5)nc(OC[C@@]56CCCN5C[C@H](F)C6)nc4c3F)c12` [Example 134, 1-(7-(8-Ethyl-7-fluoro-3-hydroxynaphthalen-1-yl)-8-fluoro-2-(((2R,7aS)-2-fluorotetrahydro-1H-pyrrolizin-7a(5H)-yl)methoxy)pyrido[4,3-d]pyrimidin-4-yl)-1,2,6,7-tetrahydro-3H-azepin-3-one] was tested, and the IC50 was 259 nM.
Work on `CCc1c(F)ccc2cc(O)cc(-c3ncc4c(N5CC(n6ccnc6)C5)nc(OC[C@@]56CCCN5C[C@H](F)C6)nc4c3F)c12` [Example 91, 4-(4-(3-(1H-Imidazol-1-yl)azetidin-1-yl)-8-fluoro-2-(((2R,7aS)-2-fluorotetrahydro-1H-pyrrolizin-7a(5H)-yl)methoxy)pyrido[4,3-d]pyrimidin-7-yl)-5-ethyl-6-fluoronaphthalen-2-ol] yielded an IC50 of 5130 nM.
`CCc1c(F)ccc2cc(O)cc(-c3ncc4c(N5CCCC(OC)C5)nc(OC[C@@]56CCCN5C[C@H](F)C6)nc4c3F)c12` (stereo partly drawn) [Example 15, 5-Ethyl-6-fluoro-4-(8-fluoro-2-(((2R,7aS)-2-fluorotetrahydro-1H-pyrrolizin-7a(5H)-yl)methoxy)-4-(3-methoxypiperidin-1-yl)pyrido[4,3-d]pyrimidin-7-yl)naphthalen-2-ol] showed an IC50 of 1480 nM.

Same assay, conditions: Homo sapiens, ASPC1, read-out: 2 h p-ERK (AsPC-1 cells), IC50; AsPC-1 cells, 2 h compound treatment
In the case of `[2H]C([2H])([2H])[C@]1(O)CCCN(c2nc(OC[C@@]34CCCN3C[C@H](F)C4)nc3c(F)c(-c4cc(O)cc5ccc(F)c(CC)c45)ncc23)C1` [Example 177, (S)-1-(7-(8-Ethyl-7-fluoro-3-hydroxynaphthalen-1-yl)-8-fluoro-2-(((2R,7aS)-2-fluorotetrahydro-1H-pyrrolizin-7a(5H)-yl)methoxy)pyrido[4,3-d]pyrimidin-4-yl)-3-(methyl-d3)piperidin-3-ol], the IC50 is reported as 109 nM.
Work on `CCc1c(F)ccc2cc(O)cc(-c3ncc4c(N5CCC[C@@](C)(O)C5)nc(OC[C@]56CCCN5C[C@@H](F)C6)nc4c3F)c12` [Example 178, (R)-1-(7-(8-Ethyl-7-fluoro-3-hydroxynaphthalen-1-yl)-8-fluoro-2-(((2S,7aR)-2-fluorotetrahydro-1H-pyrrolizin-7a(5H)-yl)methoxy)pyrido[4,3-d]pyrimidin-4-yl)-3-methylpiperidin-3-ol bis(2,2,2-trifluoroacetate)] yielded an IC50 of 8 nM.
With `CCc1c(F)ccc2cc(O)cc(-c3ncc4c(N5CCC[C@@](C)(O)C5)nc(OC[C@]56CCCN5C[C@H](F)C6)nc4c3F)c12` [Example 53, (R)-1-(7-(8-ethyl-7-fluoro-3-hydroxynaphthalen-1-yl)-8-fluoro-2-(((2R,7aR)-2-fluorotetrahydro-1H-pyrrolizin-7a(5H)-yl)methoxy)pyrido[4,3-d]pyrimidin-4-yl)-3-methylpiperidin-3-ol] the IC50 was 13 nM.
For `[2H]C([2H])([2H])[C@@]1(O)CCCN(c2nc(OC[C@@]34CCCN3C[C@H](F)C4)nc3c(F)c(-c4cc(O)cc5ccc(F)c(CC)c45)ncc23)C1` [Example 176, (R)-1-(7-(8-Ethyl-7-fluoro-3-hydroxynaphthalen-1-yl)-8-fluoro-2-(((2R,7aS)-2-fluorotetrahydro-1H-pyrrolizin-7a(5H)-yl)methoxy)pyrido[4,3-d]pyrimidin-4-yl)-3-(methyl-d3)piperidin-3-ol], the IC50 was 5 nM.

Same assay, conditions: read-out: 2 h p-ERK (AsPC-1 cells), IC50; AsPC-1 cells, 2 h compound treatment
Work on `CCc1c(F)ccc2cc(O)cc(-c3ncc4c(N5CCCC(O)(CF)C5)nc(OC[C@@]56CCCN5C[C@H](F)C6)nc4c3F)c12` (single isomer, unassigned) [Example 171] yielded an IC50 of 2 nM.
